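Values below derive from 48-hour exposures of cells grown in 96-well plates, with endpoints linearly interpolated between the two concentrations bracketing the appropriate inhibition level. The concentration for 50% growth inhibition is given as GI50.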 Activity calls are given as the source filed them. Cut-off read from the data, not from the text of the source: active = GI50 up to about 1.1 µM and inactive = higher.
Experiments:
Assay in all cases: DTP human tumour cell line panel, 48 h
[1] = system: HOP-92
[2] = system: 786-0
[3] = system: HCT-116
[4] = system: SNB-19
[5] = system: HCC 2998
[6] = system: MOLT-4
[7] = system: HOP-62
[8] = system: Malme-3M
[9] = system: KM12
[10] = system: SK-OV-3
[11] = system: SW-620
[12] = system: A549
[13] = system: SF-539
[14] = system: SNB-75
[15] = system: TK-10
[16] = system: OVCAR-8
[17] = system: UACC-257

Measured: GI50

COc1ccc(/C=c2/sc3n(c2=O)NC2(CCC(C)CC2)NN=3)cc1 (stereo unspecified)
inactive: [1] 34.9 µM | [2] > 100 µM | [3] > 100 µM | [4] > 100 µM | [5] > 100 µM | [6] > 100 µM | [7] > 100 µM | [8] > 100 µM | [9] > 100 µM | [10] > 100 µM | [11] > 100 µM | [12] > 100 µM | [13] > 100 µM | [14] > 100 µM | [15] > 100 µM | [16] > 100 µM

CC(=O)O[C@]12CCCCCC1C1(O)C(O)CCC[C@H]12 (stereo partly specified)
inactive: [2] > 100 µM | [3] > 100 µM | [4] > 100 µM | [6] > 100 µM | [7] > 100 µM | [8] > 100 µM | [9] > 100 µM | [10] > 100 µM | [11] > 100 µM | [12] > 100 µM | [17] > 100 µM | [14] > 100 µM | [15] > 100 µM | [16] > 100 µM

COc1cccc(/C=C(\NC(C)=O)c2nc3cc(Cl)ccc3[nH]2)c1
inactive: [1] 59.3 µM | [2] > 100 µM | [4] > 100 µM | [5] > 100 µM | [6] > 100 µM | [8] > 100 µM | [9] > 100 µM | [10] > 100 µM | [11] > 100 µM | [12] > 100 µM | [13] > 100 µM | [15] > 100 µM | [16] > 100 µM

O=C(O)CNc1cc(-c2ccccc2)nc(NCC(=O)O)n1
inactive: [1] > 100 µM | [2] > 100 µM | [3] > 100 µM | [4] > 100 µM | [5] > 100 µM | [6] > 100 µM | [7] > 100 µM | [8] > 100 µM | [9] > 100 µM | [10] > 100 µM | [11] > 100 µM | [12] > 100 µM | [13] > 100 µM | [17] > 100 µM | [14] > 100 µM | [15] > 100 µM | [16] > 100 µM

C=CC1=C(C)c2cc3[nH]c(cc4nc(cc5[nH]c(cc1n2)c(C)c5CCC(=O)N(CC)CC)C(CCC(=O)N(CC)CC)=C4C)c(C)c3C=C
inactive: [1] 6.04 µM | [2] > 100 µM | [3] > 100 µM | [5] > 100 µM | [6] > 100 µM | [7] > 100 µM | [8] > 100 µM | [9] > 100 µM | [10] > 100 µM | [11] > 100 µM | [12] > 100 µM | [13] > 100 µM | [17] > 100 µM | [14] 29.4 µM | [15] > 100 µM | [16] > 100 µM

O=c1c2cccnc2ncn1CCCN1CCCC1
inactive: [1] > 100 µM | [2] > 100 µM | [3] > 100 µM | [4] > 100 µM | [6] > 100 µM | [7] > 100 µM | [9] > 100 µM | [10] > 100 µM | [11] > 100 µM | [12] > 100 µM | [13] > 100 µM | [14] > 100 µM | [15] > 100 µM | [16] > 100 µM

CC(=O)/C(=C\c1cccc([N+](=O)[O-])c1)C(=O)Nc1ccccc1C
inactive: [1] > 100 µM | [2] > 100 µM | [3] 57.3 µM | [4] 94.4 µM | [5] 75.5 µM | [6] 39.5 µM | [7] > 100 µM | [8] > 100 µM | [9] > 100 µM | [10] > 100 µM | [11] > 100 µM | [12] > 100 µM | [13] > 100 µM | [17] > 100 µM | [15] > 100 µM | [16] > 10 µM
